Values of other authors, collected in patent US11964046B2, “Topical composition for the control of pain in animals” (priority 2016, dated 2024).

Test system: piglets
[1] = lidocaine injected at least three minutes prior to castration, p<0.001

Structure (SMILES): CCN(CC)CC(=O)Nc1c(C)cccc1C [lidocaine]
- pain during castration (study conclusion) (injected): reduced pain during castration
- intensity of calls during castration [1]: lower intensity
- resistance movements during castration [1]: less resistance movements
